Columns and labels:
[1] = tested on: nitrite production in human cartilage explants induced with recombinant human IL-1β; assay: Human cartilage explant assay; assay type: cell-based; settings: six concentrations of inhibitor, read-out: IC50 inhibition of nitrite production
Protocol: Bone pieces are rinsed twice with Dulbecco's Phosphate Buffered Saline (GibcoBRL) and once with Dulbecco's Modified Eagles Medium (GibcoBRL) and placed into a petri dish with phenol red free Minimum Essential Medium (MEM) (GibcoBRL). Cartilage was cut into small explants of approximately 15-45 mg in weight and one or two explants per well are placed into either 96 or 48 well culture plates with 200-500 μL of culture media per well. The culture media was either a custom modification of Minimum Essential Medium(Eagle) with Earle's salts (GibcoBRL) prepared without L-Arginine, without L-Glutamine and without phenol red or a custom modification of serumless Neuman and Tytell (GibcoBRL) medium prepared without L-arginine, without insulin, without ascorbic acid, without L-glutamine and without phenol red. […]
The day old supernatant is then discarded and replaced with fresh culture media containing recombinant human IL-1β and compound and incubated for another 20-24 hours. This supernatant is analyzed for nitrite with a fluorometric assay (Misko et al, Anal. Biochem., 214, 11-16, 1993). […] IC50 values (Table III) are determined from plotting the percent inhibition of nitrite production at six different concentrations of inhibitor.

[2] = tested on: LPS-induced increase in plasma nitrite/nitrate levels; assay: In vivo assay in endotoxin-treated rats; settings: Rattus norvegicus, po, administered orally 0.5-1 hours prior to LPS, plasma nitrite/nitrate 5 hours following LPS, read-out: ED50 for inhibition of the LPS-induced increase in plasma nitrite/nitrate levels
Protocol: Compounds are administered orally 0.5-1 hours prior to LPS administration and plasma nitrite/nitrate levels are determined 5 hours following LPS administration.

Compound | IC50 [1] | ED50 [2]
CC(=N)NC/C=C\CC[C@](C)(N)C(=O)O.Cl.Cl [Example 14, (2S,5Z)-2-amino-2-methyl-7-[(1-iminoethyl)amino]-5-heptenoic acid, Dihydrochloride] | 0.8 µM | 0.3 mg/kg
CC(=N)NC/C(F)=C\CC[C@](C)(N)C(=O)O.Cl.Cl [Example 1, (2S,5E)-2-amino-2-methyl-6-fluoro-7-[(1-iminoethyl)amino]-5-heptenoic acid, Dihydrochloride] | 0.4 µM | 0.4 mg/kg

— patent US6951889B2, “2-amino-2-alkyl-5 heptenoic and heptynoic acid derivatives useful as nitric oxide synthase inhibitors” (Pharmacia Corporation, priority 2000, dated 2005)
